The record followed here is paper PMC7340446, “Optimization of PTH/PTHrP Hybrid Peptides to Derive a Long‐Acting PTH Analog (LA‐PTH)” (JBMR Plus, 2020).

Where no end group is shown, it is not given here.

As a reminder, the IC50 is the point on the concentration scale where inhibition reaches its midpoint. By Emax is commonly meant the maximal effect, on the per cent scale that the assay sets.

The target of series [1] is T1, human PTHR1 (R^0 conformation) (Homo sapiens, UniProt Q03431).
T1 construct: expressed in transfected cells; host or cells: COS-7 cells (transient transfection; membranes)
T1 sequence (Q03431 27-593): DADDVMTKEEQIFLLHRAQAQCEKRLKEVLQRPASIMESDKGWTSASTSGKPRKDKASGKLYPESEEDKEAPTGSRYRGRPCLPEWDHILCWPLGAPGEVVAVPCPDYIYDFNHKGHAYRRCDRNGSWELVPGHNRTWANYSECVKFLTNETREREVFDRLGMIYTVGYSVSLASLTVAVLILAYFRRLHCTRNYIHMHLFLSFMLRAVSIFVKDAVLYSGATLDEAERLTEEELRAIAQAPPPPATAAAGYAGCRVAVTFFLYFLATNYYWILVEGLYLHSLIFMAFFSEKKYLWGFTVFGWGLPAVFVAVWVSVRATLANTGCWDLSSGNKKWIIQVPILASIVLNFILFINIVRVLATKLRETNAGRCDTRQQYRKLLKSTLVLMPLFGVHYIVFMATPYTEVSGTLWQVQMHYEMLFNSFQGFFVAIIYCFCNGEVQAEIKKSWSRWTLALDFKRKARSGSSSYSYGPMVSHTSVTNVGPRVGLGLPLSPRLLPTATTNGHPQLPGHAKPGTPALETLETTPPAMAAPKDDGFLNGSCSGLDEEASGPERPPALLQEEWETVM
Kind of series: Competition binding to the R^0 conformation of PTHR1.

For series [2], the target named is T2, human PTHR1 (RG conformation) (Homo sapiens, UniProt Q03431).
T2 construct: expressed in transfected cells; host or cells: COS-7 cells (transient co-transfection; membranes)
T2 sequence (Q03431 27-593): T1 sequence (Q03431 27-593)
Kind of series: Competition binding to the RG conformation of PTHR1.

Another series addresses T3, human PTHR1 (Homo sapiens, UniProt Q03431).
T3 construct: expressed in transfected cells
T3 sequence (Q03431 27-593): T1 sequence (Q03431 27-593)
The series can be described thus: GloSensor cAMP signaling assay in GP‐2.3 cells. It counts as cell-based. The method, then:
GP‐2.3 cells, an HEK‐293 cell‐ (ATCC CRL‐1573) derived cell line that stably expresses the luciferase‐based pGloSensor‐22F (GloSensor) cAMP reporter plasmid (Promega Corp., […], USA) along with the human PTHR1, were cultured in DMEM (Thermo Fisher Scientific, Waltham, MA, USA) supplemented with FBS (10%). Cells were seeded into white 96‐well plates for GloSensor cAMP assays, and used for assay 2 to 3 days after the monolayer became confluent.16 UGS‐56 cells were derived from the UMR106 rat osteoblastic cell line by stably transfecting the cells to express the GloSensor‐cAMP reporter. B64 cells are a derivative of the porcine kidney cell line, LLC‐PK1 that stably expresses the human PTHR1. COS‐7 cells (ATCC CRL‐1661) were seeded into 10‐cm dishes and transiently transfected to express the human PTHR1 with or without a high‐affinity, negative‐dominant Gαs subunit; 2 days after transfection, the cells were harvested for membrane preparations.13 All transfections were performed using the Fugene HD reagent (Promega Corp.).
Changes in cAMP levels were assessed in intact GP‐2.3 or UGS‐56 cells via the (GloSensor) cAMP reporter. The intact cells in white 96‐well plates were preloaded with luciferin in CO2‐independent culture media (Thermo Fisher) for 20 min at room temperature, then treated with a test ligand diluted in the same media and placed into a Envision plate reader (PerkinElmer, Waltham, MA, USA) for an additional 30 min, during which time cAMP‐dependent luminescence was measured at 2‐min intervals (ligand‐on phase). […] For washout responses, the cells were treated as above, and after the ligand‐on phase, the plate was removed from the plate reader, the cells were rinsed with media, then fresh media containing only luciferin was added and luminescence was measured for an additional 90 min (washout phase). EC50 values were determined using the 4‐parameter sigmoidal dose–response equation in Prism 8.0 (GraphPad Software, Inc., La Jolla, CA, USA).
The cells were then removed from the plate reader, rinsed twice with media to remove unbound ligand, and then fresh media containing luciferin but lacking ligand was added and luminescence was assessed for additional 90 min (Ligand wash‐out phase). Data are means (± SEM) of four experiments, each performed in triplicate. Figure S2. […] Panels A‐C represent three separate experiments. […] Figure S3. […] Serum and urine samples obtained from the TPTX and sham control rats of the two‐week daily‐administration experiment shown in Figure 4 were analyzed by ELISA for the indicated markers. A) serum 1,25(OH)2Vitamin‐D3. B) urinary deoxypyridinoline (DpD)/Cre. C) serum FGF23. […] Serum and urine samples obtained from the TPTX and sham control rats of the two‐week daily‐administration experiment shown in Figure 4 were analyzed for total inorganic phosphorus (Pi). […] Figure S5. […] B) The same peptides were assessed at a concentration of 3 nM for the capacity to stimulate cAMP formation in HKRK‐B64 cells (LLC‐PK1 cells stably expressing the hPTHR1, cAMP measured by RIA). […] Data in A and B are means (±SEM) of three experiments, each performed in triplicate or quadruplicate. […] D) The same analogs as in C were assessed at a 3.0 nM concentration for the capacity to stimulate cAMP formation in HKRK‐B64 cells. Data are means (±SEM) of three experiments, each performed in duplicate. […] Data are means (±SEM) of duplicate determinations of a single experiment representative of three others. Click here for additional data file.

The test system of series [3] is thyroparathyroidectomized (TPTX) rats. Kind of series: Repeated daily administration in TPTX rats (11‐day treatment, 12‐day study). The class given is in vivo, rat. The method, then: TPTX rats were injected i.v. or s.c. with vehicle or vehicle containing a PTH peptide, or orally treated once daily with vehicle (medium‐chain triglyceride; Chugai Pharma Manufacturing, Tokyo, Japan) or vehicle containing alfacalcidol (Chugai Pharma Manufacturing) for 11 days. Blood samples were obtained from the tail or jugular vein immediately before and at times after injection. Urine samples at 0 to 8 hours or 8 to 24 hours, were collected in metabolic cages. sCa and uCa, serum inorganic phosphorus (sPi) and urinary phosphorus (uPi), and creatinine (uCre) were measured with an automatic analyzer (7180; Hitachi, Ltd, Chiyoda, Tokyo, Japan). Urinary deoxypyridinoline (uDpD) was measured using a Metra DPD EIA kit (DS Pharma Biomedical, Osaka, Japan), and the data were normalized to the uCre concentrations. Serum FGF23 was measured using FGF23 ELISA assay (Immunodiagnostik AG, Bensheim, Germany). Serum 1,25‐dihydroxyvitamin D [1,25(OH)2D3] levels were determined by a ELISA immunoassay (Immunodiagnostic System Ltd, Bolden, UK).
Figure 4 Effects of 11‐day treatment (12‐day study) with M‐PTH/PTHrP or alfacalcidol on serum calcium (sCa) in thyroparathyroidectomized (TPTX) rats. TPTX rats were treated for 11 days with daily s.c. injection of either vehicle or M‐PTH/PTHrP, or with daily oral alfacalcidol at the indicated doses, and sham‐surgery control rats were s.c. injected daily with vehicle. The levels of Ca in serum and urine were assessed. Blood samples were collected from the jugular vein at 8 hours (A) and at 24 hours (B) after the last treatment administration, and assessed for total sCa. Total urine was collected in metabolic cages over the time intervals of 0 to 8 hours (C), and 8 to 24 hours (D) and assessed for total urinary Ca. Data are means ± SEM; n = 6 or 5 (2.0 and 4.0 nmol/kg of M‐PTH/PTHrP); *p < 0.05 M‐PTH/PTHrP versus TPTX‐vehicle; #p < 0.05 TPTX vehicle versus sham.
Supplementary file JBM4-4-e10367-s001.pdf: Figure S1 PTH ligand‐induced cAMP‐signaling responses in GP‐2.3 cells Time course of the cAMP‐dependent luminescence response measured at 2‐minute intervals in the presence of each ligand at 10 nM (Ligand on‐phase) and B) Time course of the cAMP‐dependent luminescence response measured at 2‐minute intervals after washout of unbound ligand (Ligand wash‐out phase). GP‐2.3 cells preloaded with luciferin were treated with a concentration of PTH ligand at a concentration of 10 nM for 30 min, and cAMP‐dependent luminescence was measured at two‐minute intervals (ligand‐on phase). The cells were then removed from the plate reader, rinsed twice with media to remove unbound ligand, and then fresh media containing luciferin but lacking ligand was added and luminescence was assessed for additional 90 min (Ligand wash‐out phase). Data are means (± SEM) of four experiments, each performed in triplicate. Figure S2. In vivo calcemic actions of M‐PTH/PTHrP hybrid analogs in normal rats. The indicated M‐PTH/PTHrP hybrid analogs (sequences are shown in Figure 1) along with PTH(1–34) and PTHrP(1–36) controls, were administered at the indicated doses by i.v. injection, and at the indicated time points blood was collected from the tail vein and measured for ionized calcium (Ca^2+). Panels A‐C represent three separate experiments. Data are means ± SEM; n = 6 or 4 (80 nmol/kg of M‐PTH(1‐11)/PTHrP(12–36), M‐PTH(1‐14)/PTHrP(12–36), M‐PTH(1‐17)/PTHrP(18–36) and 1.25 nmol/kg of M‐PTH(1–30)/PTHrP(31–36)). *p < 0.05 versus Vehicle. Figure S3. Effects of 11 days treatment (12 days study) of M‐PTH/PTHrP on serum 1,25(OH) 2 Vitamin‐D3, urinary deoxypyridinoline (Dpd) and serum FGF23 in TPTX rats. Serum and urine samples obtained from the TPTX and sham control rats of the two‐week daily‐administration experiment shown in Figure 4 were analyzed by ELISA for the indicated markers. A) serum 1,25(OH)2Vitamin‐D3. B) urinary deoxypyridinoline (DpD)/Cre. C) serum FGF23. […]

Consider “AVAEIQLMHQRAKWLNSMERVEWLRKKLQDIHTAEI [M‐PTH(1‐30)/PTHrP(31‐36)]”, for which the IC50 is 2.98 ± 0.48 nM in series [1] and 0.21 ± 0.03 nM in series [2]. Further, on human PTHR1, the maximum response (Emax) came out at 106 ± 4%.
Turning to “AVAEIQLMHQRAKWLNSMRRRFFLHHLIAEIHTAEI [M‐PTH(1‐18)/PTHrP(19‐36)]”, the figures for the IC50 in series [1] and in series [2] were 1.66 ± 0.22 nM and 0.13 ± 0.02 nM, respectively. At human PTHR1, the maximum response (Emax) was found to be 107 ± 5%.
The matching figures for “AVAEIQLMHQRAKWLNSMERVEWLRKLIAEIHTAEI [M‐PTH(1‐26)/PTHrP(27‐36)]”: 1.73 ± 0.75 nM, 0.13 ± 0.04 nM and 106 ± 5%.
The matching figures for “AVAEIQLMHQRGKSIQDLRRRFFLHHLIAEIHTAEI [M‐PTH(1‐11)/PTHrP(12‐36)]”: 2.14 ± 0.47 nM, 0.55 ± 0.15 nM and 103 ± 3%.
For the molecule `C=C1/C(=C\C=C2/CCC[C@]3(C)[C@@H]([C@H](C)CCCC(C)C)CC[C@@H]23)C[C@@H](O)C[C@@H]1O` [alfacalcidol, 1α‐hydroxycholecalciferol], the “Serum levels of FGF23” value in series [3] (M‐PTH/PTHrP at 4.0 and 8.0 nmol/kg s.c., alfacalcidol at 0.2 μg/kg oral, daily, ELISA) was “significantly increased”. In series [3] (daily oral 0.2 μg/kg), the sCa levels result is given as “comparable to those of the sham group”. Also, the uCa excretion result in series [3] (daily oral 0.2 μg/kg, 0‐ to 8‐ and 8‐ to 24‐hour intervals) is “high uCa excretion levels”. Moreover, the sPi levels result in series [3] (daily oral, especially at the 0.2 μg/kg dose) is recorded as “normalized sPi levels”.
With “AVAEIQLMHQRAKWLNSLRRRFFLHHLIAEIHTAEI [M‐PTH(1‐17)/PTHrP(18‐36)]”, the IC50 in series [1] was found to be 1.91 ± 0.39 nM; in series [2], 0.23 ± 0.02 nM. This molecule also displayed an Emax at human PTHR1 of 105 ± 5%.
With “AVAEIQLMHQRAKWLNSMERVEFLHHLIAEIHTAEI [M‐PTH(1‐22)/PTHrP(23‐36)]”, the IC50 was determined as 7.8 ± 2.55 nM in series [1] and 0.67 ± 0.02 nM in series [2]. Further, the Emax on human PTHR1 was determined as 104 ± 4%.
